This test addresses T1, Eg5 (human Kinesin-5) (Homo sapiens, UniProt P52732).
T1 construct: gene KIF11; motor domain (residues 1–369); with microtubules (bovine brain tubulin)
T1 sequence (P52732 1-369): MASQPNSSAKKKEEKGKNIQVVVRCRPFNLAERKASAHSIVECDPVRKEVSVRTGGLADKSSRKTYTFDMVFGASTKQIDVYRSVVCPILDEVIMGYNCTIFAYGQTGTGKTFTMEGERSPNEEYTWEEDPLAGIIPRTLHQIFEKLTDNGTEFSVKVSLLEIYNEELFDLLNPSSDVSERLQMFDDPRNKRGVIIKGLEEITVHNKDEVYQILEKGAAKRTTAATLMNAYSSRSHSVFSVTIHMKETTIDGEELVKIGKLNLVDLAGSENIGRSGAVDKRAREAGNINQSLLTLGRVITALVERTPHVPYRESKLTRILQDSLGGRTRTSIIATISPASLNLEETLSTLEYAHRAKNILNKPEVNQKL
Put plainly: microtubule depolymerization turbidity assay with purified Eg5 motor domain, single concentration […] AMPPNP. In kind it is biochemical.

`Nc1ncnc2c1ncn2[C@@H]1O[C@H](CO[P@](=O)(O)O[P@](=O)(O)NP(=O)(O)O)[C@@H](O)[C@H]1O` [AMP, AMPPNP]: the “microtubule depolymerization turbidity assay with purified Eg5 motor domain, sin” value is “treatment with excess orthosteric inhibitor, AMPPNP, completely inhibited its microtubule depolymerization ability”.

The record behind these values is paper PMC6934681, “Small molecule allosteric uncoupling of microtubule depolymerase activity from motility in human Kinesin-5 during mitotic spindle assembly” (Scientific Reports, 2019).
